Test results taken from patent US10750743B2, “Pyridazinone herbicides” (E.I. DU PONT DE NEMOURS AND COMPANY, priority 2015, dated 2020).

Key:
Type in all cases: in vivo
[1] = test system: barnyardgrass (Echinochloa crus-galli); test: Test A preemergence, directed soil spray, visual injury rating; settings: 0 is no effect, 100 is complete control
Summary of the method: (§1)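 Compounds in a surfactant-containing solvent were applied as a directed soil spray preemergence, or postemergence to plants 2-10 cm tall at the one- to two-leaf stage, in loam-sand blend. After about 10 d in the greenhouse, injury was rated visually against untreated controls on a 0-100 scale (100 = complete control).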

[2] = test system: foxtail, giant (giant foxtail, Setaria faberii); test: as above; settings: 0 is no effect, 100 is complete control
Summary of the method: as §1

[3] = test system: kochia (Kochia scoparia); test: as above; settings: 0 is no effect, 100 is complete control
Summary of the method: as §1

[4] = test system: pigweed (Amaranthus retroflexus); test: as above; settings: 0 is no effect, 100 is complete control
Summary of the method: as §1

[5] = test system: ragweed (common ragweed, Ambrosia elatior); test: as above; settings: 0 is no effect, 100 is complete control
Summary of the method: as §1

[6] = test system: ryegrass, It. (Italian ryegrass, Lolium multiflorum); test: as above; settings: 0 is no effect, 100 is complete control
Summary of the method: as §1

[7] = test system: barnyardgrass (Echinochloa crus-galli); test: Test B flooded paddy test, visual rating; settings: Flood, 250 g ai/ha, applied to paddy water, rated after 13 to 15 d
Summary of the method: (§2)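 Plants grown to the 2-leaf stage. At treatment, pots were flooded to 3 cm above the soil, compound was applied directly to the paddy water, and that depth was held throughout. After 13 to 15 d in the greenhouse, response was rated visually against controls on a 0 (no effect) to 100 (complete control) scale.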

[8] = test system: ducksalad (Heteranthera limosa); test: Test B flooded paddy test, visual rating; settings: Flood, 250 g ai/ha, applied to paddy water, rated after 13 to 15 d
Summary of the method: as §2

[9] = test system: rice (Oryza sativa); test: Test B flooded paddy test, visual rating; settings: Flood, 250 g ai/ha, applied to paddy water, rated after 13 to 15 d
Summary of the method: as §2

[10] = test system: sedge, umbrella (small-flower umbrella sedge, Cyperus difformis); test: Test B flooded paddy test, visual rating; settings: Flood, 250 g ai/ha, applied to paddy water, rated after 13 to 15 d
Summary of the method: as §2

[11] = test system: barnyardgrass (Echinochloa crus-galli); test: Test A postemergence application, visual injury rating; settings: 0 to 100 scale, 0 no effect, 100 complete control
Summary of the method: as §1

[12] = test system: blackgrass (Alopecurus myosuroides); test: as above; settings: 0 to 100 scale, 0 no effect, 100 complete control
Summary of the method: as §1

[13] = test system: corn (Zea mays); test: as above; settings: 0 to 100 scale, 0 no effect, 100 complete control
Summary of the method: as §1

[14] = test system: foxtail, giant (giant foxtail, Setaria faberii); test: as above; settings: 0 to 100 scale, 0 no effect, 100 complete control
Summary of the method: as §1

[15] = test system: galium (catchweed bedstraw, Galium aparine); test: as above; settings: 0 to 100 scale, 0 no effect, 100 complete control
Summary of the method: as §1

[16] = test system: kochia (Kochia scoparia); test: as above; settings: 0 to 100 scale, 0 no effect, 100 complete control
Summary of the method: as §1

[17] = test system: pigweed (Amaranthus retroflexus); test: as above; settings: 0 to 100 scale, 0 no effect, 100 complete control
Summary of the method: as §1

[18] = test system: ragweed (common ragweed, Ambrosia elatior); test: as above; settings: 0 to 100 scale, 0 no effect, 100 complete control
Summary of the method: as §1

[19] = test system: ryegrass, It. (Italian ryegrass, Lolium multiflorum); test: as above; settings: 0 to 100 scale, 0 no effect, 100 complete control
Summary of the method: as §1

[20] = test system: wheat (Triticum aestivum); test: as above; settings: 0 to 100 scale, 0 no effect, 100 complete control
Summary of the method: as §1

SMILES	Plant response rating (0 to 100 scale), Barnyardgrass ([1]; 31 g ai/ha)	Plant response rating (0 to 100 scale), Barnyardgrass ([1]; 125 g ai/ha)	Plant response rating (0 to 100 scale), Foxtail, Giant ([2]; 31 g ai/ha)	Plant response rating (0 to 100 scale), Foxtail, Giant ([2]; 125 g ai/ha)	Plant response rating (0 to 100 scale), Kochia ([3]; 31 g ai/ha)	Plant response rating (0 to 100 scale), Kochia ([3]; 125 g ai/ha)	Plant response rating (0 to 100 scale), Pigweed ([4]; 31 g ai/ha)	Plant response rating (0 to 100 scale), Pigweed ([4]; 125 g ai/ha)	Plant response rating (0 to 100 scale), Ragweed ([5]; 31 g ai/ha)	Plant response rating (0 to 100 scale), Ragweed ([5]; 125 g ai/ha)	Plant response rating (0 to 100 scale), Ryegrass, It. ([6]; 31 g ai/ha)	Plant response rating (0 to 100 scale), Ryegrass, It. ([6]; 125 g ai/ha)	Barnyardgrass plant response rating (0 to 100 scale, 0 is no effect, 100 is complete control) [7]	Ducksalad plant response rating (0 to 100 scale, 0 is no effect, 100 is complete control) [8]	Rice plant response rating (0 to 100 scale, 0 is no effect, 100 is complete control) [9]	Sedge, Umbrella plant response rating (0 to 100 scale, 0 is no effect, 100 is complete control) [10]	Barnyardgrass plant response rating ([11]; 31 g ai/ha)	Barnyardgrass plant response rating ([11]; 125 g ai/ha)	Blackgrass plant response rating ([12]; 31 g ai/ha)	Blackgrass plant response rating ([12]; 125 g ai/ha)	other results
COC(=O)Oc1c(C)nn(C)c(=O)c1-c1cccc2cc(C)oc12 [Compound 28]	0	0	0	0	0	20	0	0	0	30	20	70	0	0	0	0	0	10	0	30	Corn plant response rating ([13]; 31 g ai/ha): 0; Corn plant response rating ([13]; 125 g ai/ha): 0; Foxtail, Giant plant response rating ([14]; 31 g ai/ha): 0; Foxtail, Giant plant response rating ([14]; 125 g ai/ha): 20; Galium plant response rating ([15]; 31 g ai/ha): 40; Galium plant response rating ([15]; 125 g ai/ha): 80; Kochia plant response rating ([16]; 31 g ai/ha): 0; Kochia plant response rating ([16]; 125 g ai/ha): 40; Pigweed plant response rating ([17]; 31 g ai/ha): 10; Pigweed plant response rating ([17]; 125 g ai/ha): 40; Ragweed plant response rating ([18]; 31 g ai/ha): 20; Ragweed plant response rating ([18]; 125 g ai/ha): 60; Ryegrass, It. plant response rating ([19]; 31 g ai/ha): 30; Ryegrass, It. plant response rating ([19]; 125 g ai/ha): 60; Wheat plant response rating ([20]; 31 g ai/ha): 0; Wheat plant response rating ([20]; 125 g ai/ha): 0
COC(=O)Oc1c(C)nn(C)c(=O)c1-c1ccc(Cl)c2oc(C)cc12 [Compound 53]	0	30	0	0	0	0	0	40	20	0	0	60	0	0	0	0	0	10	0	0	Corn plant response rating ([13]; 31 g ai/ha): 0; Corn plant response rating ([13]; 125 g ai/ha): 0; Foxtail, Giant plant response rating ([14]; 31 g ai/ha): 0; Foxtail, Giant plant response rating ([14]; 125 g ai/ha): 0; Galium plant response rating ([15]; 31 g ai/ha): 60; Galium plant response rating ([15]; 125 g ai/ha): 80; Kochia plant response rating ([16]; 31 g ai/ha): 0; Kochia plant response rating ([16]; 125 g ai/ha): 0; Pigweed plant response rating ([17]; 31 g ai/ha): 30; Pigweed plant response rating ([17]; 125 g ai/ha): 50; Ragweed plant response rating ([18]; 31 g ai/ha): 0; Ragweed plant response rating ([18]; 125 g ai/ha): 30; Ryegrass, It. plant response rating ([19]; 31 g ai/ha): 10; Ryegrass, It. plant response rating ([19]; 125 g ai/ha): 30; Wheat plant response rating ([20]; 31 g ai/ha): 0; Wheat plant response rating ([20]; 125 g ai/ha): 0
